Holding throughout (test): Antifungal MIC, broth dilution
(In general: In broth dilution the organism is exposed to a series of concentrations in liquid medium.)

One test relates to C. albicans ATCC 24433. It is filed as cell-based, Candida albicans. The note with it: end point 48 hours; for Ca01 A: MIC80 / Ca01 B: MIC50: RPMI 1640 with MOPS; for MIC80 / MIC50: Candida albicans, ATCC24433, RPMI 1640 with MOPS; for MIC80: read-out: Ca01 A: MIC80; for MIC50: read-out: Ca01 B: MIC50. The method, then:
(§1) The compounds of Formula 1 were tested for antifungal activity against Candida albicans, Aspergillus niger and Fusarium proliferatum. In vitro evaluation of antifungal activity was performed by determining the minimum inhibitory concentration (MIC) following standard methods (CLSI: Reference method for broth dilution antifungal susceptibility testing of yeasts; Approved standard, second edition M27-A2, 2002; CLSI: Reference method for broth dilution antifungal susceptibility testing of filamentous fungi; Approved standard M38-A, 2002). Anti-fungal susceptibility testing of these anti-fungal compounds was done by broth dilution method using RPMI 1640 medium with MOPS buffer. Known anti-fungal agents like fluconazole and amphotericin-B were used as positive control. End points were determined after 48 hours visually and by using spectrophotometer wherever necessary. Different dilutions were tried and various sets of experiments performed. The activity parameters are enumerated in Table 5.

Another test relates to C. glabrata ATCC 90030. It is filed as cell-based. The note with it: end point 48 hours; for Cg01 MIC50: RPMI 1640 with MOPS; for MIC50: Nakaseomyces glabratus, ATCC90030, RPMI 1640 with MOPS, read-out: Cg01 MIC50.
The subject of the next test is C. krusei ATCC 6258. It is filed as cell-based. The settings on record: end point 48 hours; for Ck01 MIC50: RPMI 1640 with MOPS; for MIC50: Pichia kudriavzevii, ATCC6258, RPMI 1640 with MOPS, read-out: Ck01 MIC50.
Another test relates to C. tropicalis ATCC 750. It counts as cell-based. The settings on record: end point 48 hours; for Ct01 MIC50: RPMI 1640 with MOPS; for MIC50: Candida tropicalis, ATCC750, RPMI 1640 with MOPS, read-out: Ct01 MIC50.
A further test relates to C. neoformans ATCC 34664. It counts as cell-based. The note with it: end point 48 hours; for Cn01 MIC50: RPMI 1640 with MOPS; for MIC50: Cryptococcus neoformans, ATCC34664, RPMI 1640 with MOPS, read-out: Cn01 MIC50.
The subject of the next test is A. niger ATCC 16404. It counts as cell-based, Aspergillus niger. The note with it: end point 48 hours; for An01 MIC50: RPMI 1640 with MOPS; for MIC50: Aspergillus niger, ATCC16404, RPMI 1640 with MOPS, read-out: An01 MIC50. The procedure:
as §1

The test system of a further test is A. fumigatus ATCC 46645. It counts as cell-based. The settings on record: end point 48 hours; for Afm01 MIC50: RPMI 1640 with MOPS; for MIC50: Aspergillus fumigatus, ATCC46645, RPMI 1640 with MOPS, read-out: Afm01 MIC50.
The test system of test [1] is F. proliferatum ATCC 10052. It counts as cell-based, Fusarium proliferatum. The note with it: end point 48 hours; for Fp01 MIC50: RPMI 1640 with MOPS; for MIC50: Fusarium proliferatum, ATCC10052, RPMI 1640 with MOPS, read-out: Fp01 MIC50. The procedure:
as §1

The source of these data is patent US9512087B2, “Hybrid molecules containing pharmacophores of fluconazole as antifungal agents and their preparation” (Council for Scientific & Industrial Research, priority 2011, dated 2016).

As usually defined, the MIC80 is the lowest concentration that inhibits either 80% of growth or 80% of the strains tested, depending on the study. For orientation: MIC50 means the lowest concentration that inhibits either 50% of growth or 50% of the strains tested, depending on the study.

Values after ≈ are worked out from the molar mass of the structure shown.

As to `CCCCCCCCOc1ccc(C(=O)/C=C/c2ccc(OCC(O)(Cn3cncn3)c3ccc(F)cc3F)cc2)cc1` (stereo not drawn) [Compound 1A-24], in the test with C. albicans ATCC 24433, the “Ca01 A: MIC80” value is 8 µg/mL and the “Ca01 B: MIC50” value was determined as 4 µg/mL. Moreover, in the test on C. glabrata ATCC 90030, the “Cg01 MIC50” value was found to be 0.12 µg/mL. Further, in the test on C. krusei ATCC 6258, the “Ck01 MIC50” value was over 4 µg/mL. Moreover, in the test with C. tropicalis ATCC 750, the “Ct01 MIC50” value is over 4 µg/mL. The “Cn01 MIC50” value with C. neoformans ATCC 34664 is over 4 µg/mL. Moreover, the “An01 MIC50” value in the test with A. niger ATCC 16404 was over 4 µg/mL. In addition, the “Afm01 MIC50” value with A. fumigatus ATCC 46645 was over 4 µg/mL. The “Fp01 MIC50” value in test [1] is over 4 µg/mL.

With `CC(=O)/C=C/c1ccc(OCC(O)(Cn2cncn2)c2ccc(F)cc2F)cc1` (stereo not drawn) [Compound 1A-25], the MIC80 in the test with C. albicans ATCC 24433 worked out at 0.25 µg/mL (≈ 0.626 µM). Besides, the MIC50 in the test with C. albicans ATCC 24433 was determined as 0.12 µg/mL (≈ 0.3 µM); with C. glabrata ATCC 90030, 0.12 µg/mL (≈ 0.3 µM); with C. krusei ATCC 6258, 8 µg/mL (≈ 20 µM); with C. tropicalis ATCC 750, 2 µg/mL (≈ 5.01 µM); in the test with C. neoformans ATCC 34664, 4 µg/mL (≈ 10 µM); in the test on A. niger ATCC 16404, 8 µg/mL (≈ 20 µM). The MIC50 was 8 µg/mL (≈ 20 µM) in the test with A. fumigatus ATCC 46645 and over 128 µg/mL in test [1].

Turning to `CCCCCC(=O)/C=C/c1ccc(OCC(O)(Cn2cncn2)c2ccc(F)cc2F)cc1` (stereo not drawn) [Compound 1A-26], the MIC80 with C. albicans ATCC 24433 amounted to 0.25 µg/mL (≈ 0.549 µM). The MIC50 in the test on C. albicans ATCC 24433 is 0.12 µg/mL (≈ 0.263 µM); in the test with C. glabrata ATCC 90030, 0.06 µg/mL (≈ 0.132 µM); in the test on C. krusei ATCC 6258 it was 1 µg/mL (≈ 2.2 µM); in the test with C. tropicalis ATCC 750 it was 2 µg/mL (≈ 4.39 µM); with C. neoformans ATCC 34664 it was 0.5 µg/mL (≈ 1.1 µM); in the test with A. niger ATCC 16404, over 4 µg/mL. Further, the MIC50 (in the test with A. fumigatus ATCC 46645; in test [1]) was over 4 µg/mL each time.

Take `CCCCCCCCCCCCCCC(=O)/C=C/c1ccc(OCC(O)(Cn2cncn2)c2ccc(F)cc2F)cc1` (stereo not drawn) [Compound 1A-27]: in the test with C. albicans ATCC 24433, the “Ca01 A: MIC80” value was over 1 µg/mL and the “Ca01 B: MIC50” value was over 1 µg/mL. Besides, the “Cg01 MIC50” value with C. glabrata ATCC 90030 was over 1 µg/mL. Moreover, the “Ck01 MIC50” value in the test on C. krusei ATCC 6258 was over 1 µg/mL. Besides, the “Ct01 MIC50” value with C. tropicalis ATCC 750 was over 1 µg/mL. Besides, in the test on C. neoformans ATCC 34664, the “Cn01 MIC50” value is over 1 µg/mL. Further, in the test with A. niger ATCC 16404, the “An01 MIC50” value was over 1 µg/mL. In addition, in the test with A. fumigatus ATCC 46645, the “Afm01 MIC50” value is over 1 µg/mL. The “Fp01 MIC50” value in test [1] is over 1 µg/mL.

`O=C(/C=C/c1ccc(OCC(O)(Cn2cncn2)c2ccc(F)cc2F)cc1)C1CC1` (stereo not drawn) [Compound 1A-28]: in the test with C. albicans ATCC 24433, the “Ca01 A: MIC80” value is 0.06 µg/mL and the “Ca01 B: MIC50” value amounted to 0.015 µg/mL. The “Cg01 MIC50” value in the test on C. glabrata ATCC 90030 was determined as 0.03 µg/mL. Further, the “Ck01 MIC50” value in the test with C. krusei ATCC 6258 was 1 µg/mL. Besides, the “Ct01 MIC50” value in the test with C. tropicalis ATCC 750 stood at 0.25 µg/mL. For the same molecule, in the test on C. neoformans ATCC 34664, the “Cn01 MIC50” value is 2 µg/mL. The “An01 MIC50” value with A. niger ATCC 16404 is 8 µg/mL. Moreover, the “Afm01 MIC50” value with A. fumigatus ATCC 46645 is 16 µg/mL. Moreover, the “Fp01 MIC50” value in test [1] is over 16 µg/mL.

Turning to `COc1cc(/C=C/C=O)ccc1OCC(O)(Cn1cncn1)c1ccc(F)cc1F` (stereo not drawn) [Compound 1A-29], the MIC80 with C. albicans ATCC 24433 came out at 0.5 µg/mL (≈ 1.2 µM). For the same molecule, the MIC50 is 0.25 µg/mL (≈ 0.602 µM) with C. albicans ATCC 24433; 1 µg/mL (≈ 2.41 µM) in the test with C. glabrata ATCC 90030; 32 µg/mL (≈ 77 µM) in the test on C. krusei ATCC 6258; 8 µg/mL (≈ 19.3 µM) with C. tropicalis ATCC 750; 16 µg/mL (≈ 38.5 µM) in the test on C. neoformans ATCC 34664; over 64 µg/mL in the test with A. niger ATCC 16404. Moreover, the MIC50 (in the test on A. fumigatus ATCC 46645; in test [1]) was over 64 µg/mL throughout.

`O=C(c1ccc(OCC(O)(Cn2cncn2)c2ccc(F)cc2F)cc1)C(Br)C(Br)c1ccc(Cl)cc1Cl` (stereo not drawn) [Compound 1B-1, 2,3-Dibromo-3-(2,4-dichlorophenyl)-1-(4-(2-(2,4-difluorophenyl)-2-hydroxy-3-(1H-1,2,4-triazol-1-yl)propoxy)phenyl)propan-1-one]: the MIC80 with C. albicans ATCC 24433 came out at 0.5 µg/mL (≈ 0.724 µM). For the same molecule, the MIC50 in the test on C. albicans ATCC 24433 was 0.25 µg/mL (≈ 0.362 µM); with C. glabrata ATCC 90030, 0.5 µg/mL (≈ 0.724 µM); with C. krusei ATCC 6258, 2 µg/mL (≈ 2.9 µM); in the test with C. tropicalis ATCC 750 it was 1 µg/mL (≈ 1.45 µM); with C. neoformans ATCC 34664 it was 0.5 µg/mL (≈ 0.724 µM); in the test on A. niger ATCC 16404, over 8 µg/mL. For the same molecule, the MIC50 (with A. fumigatus ATCC 46645; in test [1]) was over 8 µg/mL throughout.

As to `O=C(c1ccc(OCC(O)(Cn2cncn2)c2ccc(F)cc2F)cc1)C1OC1c1ccc(Cl)cc1Cl` (stereo not drawn) [Compound 1B-2, (3-(2,4-dichlorophenyl)oxiran-2-yl) (4-(2-(2,4-difluorophenyl)-2-hydroxy-3-(1H-1,2,4-triazol-1-yl)propoxy)phenyl)methanone], the MIC80 with C. albicans ATCC 24433 came out at 0.5 µg/mL (≈ 0.915 µM). Moreover, the MIC50 in the test on C. albicans ATCC 24433 was 0.5 µg/mL (≈ 0.915 µM); in the test with C. glabrata ATCC 90030 it was 0.5 µg/mL (≈ 0.915 µM); in the test with C. krusei ATCC 6258, 4 µg/mL (≈ 7.32 µM); in the test on C. tropicalis ATCC 750, 1 µg/mL (≈ 1.83 µM); in the test on C. neoformans ATCC 34664, 1 µg/mL (≈ 1.83 µM); with A. niger ATCC 16404 it was over 4 µg/mL. In addition, the MIC50 (in the test on A. fumigatus ATCC 46645; in test [1]) was over 4 µg/mL in each case.
